{
  "source": "paper PMC6934184",
  "about": "“Selective DNA-PKcs inhibition extends the therapeutic index of localized radiotherapy and chemotherapy” (The Journal of Clinical Investigation, 2019)",
  "molecular_target": "T1, MAP4K3 (GLK) (Homo sapiens, UniProt Q8IVH8)",
  "T1 construct": "purchased Thermo Fisher Scientific (Life Technologies) SelectScreen",
  "T1 sequence (Q8IVH8 whole entry)": "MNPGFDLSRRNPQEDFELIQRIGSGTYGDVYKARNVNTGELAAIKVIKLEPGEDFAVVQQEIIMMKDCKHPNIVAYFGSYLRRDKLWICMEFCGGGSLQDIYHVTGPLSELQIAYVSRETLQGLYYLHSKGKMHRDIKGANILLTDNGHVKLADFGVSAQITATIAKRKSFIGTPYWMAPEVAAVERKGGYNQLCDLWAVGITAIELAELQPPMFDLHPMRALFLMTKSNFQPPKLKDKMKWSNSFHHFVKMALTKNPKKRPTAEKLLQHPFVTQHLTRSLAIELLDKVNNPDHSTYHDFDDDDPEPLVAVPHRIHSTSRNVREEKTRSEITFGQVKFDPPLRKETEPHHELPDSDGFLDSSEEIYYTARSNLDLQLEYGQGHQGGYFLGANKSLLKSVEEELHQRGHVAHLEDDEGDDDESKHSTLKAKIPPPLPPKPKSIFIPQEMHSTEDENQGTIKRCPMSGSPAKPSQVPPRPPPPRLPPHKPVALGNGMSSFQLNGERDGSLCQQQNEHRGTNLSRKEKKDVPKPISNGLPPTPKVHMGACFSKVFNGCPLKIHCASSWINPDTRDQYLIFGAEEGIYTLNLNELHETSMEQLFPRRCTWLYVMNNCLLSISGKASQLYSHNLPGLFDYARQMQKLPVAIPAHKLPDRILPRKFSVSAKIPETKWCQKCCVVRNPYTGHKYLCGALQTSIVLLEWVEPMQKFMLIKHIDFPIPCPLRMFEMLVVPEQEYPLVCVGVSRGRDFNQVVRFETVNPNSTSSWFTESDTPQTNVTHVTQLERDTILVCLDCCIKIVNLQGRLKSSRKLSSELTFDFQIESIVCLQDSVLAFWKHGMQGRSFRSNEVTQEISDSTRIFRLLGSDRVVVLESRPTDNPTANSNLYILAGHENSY",
  "test": "SelectScreen LanthaScreen",
  "type": "binding",
  "settings": "1 µM",
  "how_it_was_run": "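SelectScreen broad panel; activity (Z'LYTE, Adapta) plus binding formats. ATP: Km app for CSF1R Z'LYTE; 10 for CAMK1 Adapta. Readout = % per kinase.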",
  "data": [
    {"compound": "CN(C(=O)CN1CCOCC1)c1ccc2sc3c(-c4cccc5c(=O)cc(N6CC7CCC(C6)O7)oc45)cccc3c2c1", "note": "[NU5455]", "values": [
      {"measurement": "% displacement", "result": -2.1, "unit": "%"}
    ]}
  ]
}
